How the values were obtained:
Assay type in all cases: physicochemical
[1] = relative volatility of methane over ethane in the presence of the solvent
Excerpt: (§1) The preferential factor for physical solvent selection for the Mehra Process is defined as a product of relative volatility of methane over ethane multiplied by the solubility of ethane in physical solvents, specified as normal cubic meters of ethane per cubic meter of solvent.

[2] = preferential factor (relative volatility of methane over ethane multiplied by solubility of ethane in solvent); settings: relative volatility of methane over ethane x solubility of ethane in solvent
Excerpt: The preferential physical solvents are defined for the purposes of this invention as having a minimum relative volatility of methane over ethane of at least 5.0 (thereby defining its improved selectivity toward ethane over methane) and in addition a solubility of at least 1.77 normal cubic meters of gaseous hydrocarbons per cubic meter of the solvent (Nm^3/m^3) (thereby defining its hydrocarbon loading capacity), or, alternatively, a preferential factor of at least 8.85. The preferential factor for physical solvent selection for the Mehra Process is defined as a product of relative volatility of methane over ethane multiplied by the solubility of ethane in physical solvents, specified as normal cubic meters of ethane per cubic meter of solvent. […] This combination of minimum relative volatility and minimum solubility enables solvent flow rate variations and operating pressure and temperature variations to be selectively 'utilized in the Mehra Process for flexibly producing liquid products having selected hydrocarbon compositions.
Relative Volatilities of Ethane/Methane, Solubilities of Ethane in Solvent, and combined Preferential Factors are given in the following Table II for NMP, DMF, a common lean oil, the minimum solvent having desired requirements for Mehra Process applications, DMPEG, mesitylene, and the ideal solvent in the Mehra Process. […]

[3] = solubility of hydrocarbons in the solvent (hydrocarbon loading capacity); settings: normal cubic meters of gaseous hydrocarbons per cubic meter of the solvent
Excerpt: as §1

| Compound | relative volatility for methane with respect to ethane [1] | preferential factor [2] | solubility of hydrocarbons [3] [Nm^3/m^3] |
| --- | --- | --- | --- |
| dimethyl ether of polyethylene glycol [DMPEG] | 6.4 | 45 | 7.0 |
| CN1CCCC1=O [NMP, N-methyl pyrrolidone] | 5.3 | 1.1 | 0.2 |

From patent publication EP0218359A1, “Conditioning natural gas streams with preferential physical solvents” (EL PASO HYDROCARBONS COMPANY, priority 1985, dated 1987)
